{
  "source": "paper PMC12474041",
  "about": "(Toxins, 2025)",
  "key": {"[1]": {"conditions": "cited from earlier work"}, "patients with NDM": {"test_system": "patients with NDM", "conditions": "cited from earlier work"}, "[2]": {"test_system": "DIII S6 and DIV S6 of the sodium channel pore domain", "conditions": "cited from earlier work"}, "Nav1.4 [3]": {"target": "T1, Nav1.4 (Homo sapiens, UniProt P35499)", "T1 sequence (P35499 whole entry)": "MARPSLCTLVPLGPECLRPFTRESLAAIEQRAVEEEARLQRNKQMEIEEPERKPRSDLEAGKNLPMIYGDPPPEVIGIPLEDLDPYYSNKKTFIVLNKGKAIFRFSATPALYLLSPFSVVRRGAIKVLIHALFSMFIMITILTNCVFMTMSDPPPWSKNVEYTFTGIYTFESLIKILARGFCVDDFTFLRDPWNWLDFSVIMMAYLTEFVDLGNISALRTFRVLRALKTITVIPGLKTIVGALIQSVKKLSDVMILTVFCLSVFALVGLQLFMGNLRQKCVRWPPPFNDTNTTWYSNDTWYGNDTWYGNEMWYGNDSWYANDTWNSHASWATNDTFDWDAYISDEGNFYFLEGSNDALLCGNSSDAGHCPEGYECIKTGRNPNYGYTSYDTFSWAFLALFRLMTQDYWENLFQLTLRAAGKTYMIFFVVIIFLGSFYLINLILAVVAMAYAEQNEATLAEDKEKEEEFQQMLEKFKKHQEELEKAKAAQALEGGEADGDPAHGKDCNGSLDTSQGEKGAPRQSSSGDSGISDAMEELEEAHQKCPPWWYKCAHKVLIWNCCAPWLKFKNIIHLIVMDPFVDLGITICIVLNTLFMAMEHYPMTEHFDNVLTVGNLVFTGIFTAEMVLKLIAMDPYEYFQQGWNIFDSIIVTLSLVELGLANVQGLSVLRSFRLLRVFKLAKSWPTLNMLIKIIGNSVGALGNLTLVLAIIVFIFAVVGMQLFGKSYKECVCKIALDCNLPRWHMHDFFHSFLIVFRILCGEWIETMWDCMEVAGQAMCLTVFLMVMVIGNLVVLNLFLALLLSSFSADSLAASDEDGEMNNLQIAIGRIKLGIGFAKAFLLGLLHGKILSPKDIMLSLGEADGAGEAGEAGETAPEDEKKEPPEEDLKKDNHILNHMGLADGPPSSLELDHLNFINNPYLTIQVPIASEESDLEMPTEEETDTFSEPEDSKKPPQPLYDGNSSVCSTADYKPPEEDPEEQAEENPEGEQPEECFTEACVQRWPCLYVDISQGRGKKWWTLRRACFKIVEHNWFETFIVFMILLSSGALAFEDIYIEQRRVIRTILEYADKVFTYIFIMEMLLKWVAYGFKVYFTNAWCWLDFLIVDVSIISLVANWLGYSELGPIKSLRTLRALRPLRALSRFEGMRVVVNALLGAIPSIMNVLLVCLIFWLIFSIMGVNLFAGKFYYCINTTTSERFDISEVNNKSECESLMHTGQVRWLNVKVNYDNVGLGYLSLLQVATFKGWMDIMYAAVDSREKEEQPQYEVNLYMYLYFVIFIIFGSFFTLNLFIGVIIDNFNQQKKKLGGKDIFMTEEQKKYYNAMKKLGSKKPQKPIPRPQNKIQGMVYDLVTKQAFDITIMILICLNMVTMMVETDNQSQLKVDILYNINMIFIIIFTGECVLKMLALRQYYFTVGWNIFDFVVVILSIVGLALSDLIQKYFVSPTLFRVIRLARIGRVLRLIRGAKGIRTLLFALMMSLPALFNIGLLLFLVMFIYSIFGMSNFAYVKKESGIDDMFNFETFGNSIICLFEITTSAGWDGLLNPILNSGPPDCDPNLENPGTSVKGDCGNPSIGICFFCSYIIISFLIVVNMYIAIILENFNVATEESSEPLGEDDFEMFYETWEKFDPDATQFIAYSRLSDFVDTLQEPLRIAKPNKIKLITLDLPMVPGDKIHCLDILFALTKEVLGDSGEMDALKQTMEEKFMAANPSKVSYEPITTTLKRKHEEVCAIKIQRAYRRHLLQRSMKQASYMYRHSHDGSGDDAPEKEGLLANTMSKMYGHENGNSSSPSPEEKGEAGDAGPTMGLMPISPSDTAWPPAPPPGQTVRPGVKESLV", "design": "expressed in transfected cells; host or cells: HEK cells", "conditions": "cited from earlier work"}, "Nav1.5 [4]": {"test_system": "Nav1.5", "conditions": "cited from earlier work"}, "Kv1.3": {"test_system": "Kv1.3", "assay": "Whole-cell patch clamp, Kv1.3 in transfected HEK cells", "conditions": "50 μM, room temperature, currents evoked at 0 mV, held at −80 mV", "description": "(§1) Plasmids containing sodium channels or potassium channels were transfected into HEK cells (gifted from Rong’s lab at Hunan Normal University, Changsha, China [32]) using Lipofectamine 2000. After 24 h, whole-cell patch clamp recordings were made at room temperature. Using a drawn borosilicate glass electrode (resistance 3–5 MΩ) filled with intracellular solution, the current of the transfected cells was assessed using the MultiClamp 700B amplifier (Molecular Devices, Sunnyvale, America) and pCLAMP 10 software. We set the clamping voltage to −80 mV and the stimulation voltage to 0 mV.\n(§2) The extracellular solution used to record the sodium ion channels included the following components (in mM): 150 NaCl, 2 KCl, 1.5 CaCl2, 1 MgCl2, and 10 HEPES, and the pH was adjusted to 7.4 with NaOH. To record the potassium ion channel, the extracellular solution contained (in mM) 140 NaCl, 2 KCl, 1.5 CaCl2, 1 MgCl2, and 10 HEPES, and the pH was adjusted to 7.4 using NaOH. The intracellular solution that recorded the sodium ion channel currents contained 10 mM NaCl, 10 mM EGTA, 135 mM CsCl, and 10 mM HEPES, and the pH was adjusted to 7.3 with CsOH. To record the potassium ion channel currents, the intracellular solution contained 10 mM EGTA, 140 mM KCl, 2.5 mM MgCl2, and 10 mM HEPES, and the pH was adjusted to 7.4 using NaOH."}, "Nav1.7": {"test_system": "Nav1.7", "assay": "Whole-cell patch clamp, Nav1.7 in transfected HEK cells", "conditions": "room temperature, currents evoked at 0 mV, held at −80 mV", "description": "as §1, §2"}, "Nav1.4 [5]": {"target": "T1, Nav1.4", "assay": "Whole-cell patch clamp, Nav1.4 in transfected HEK cells", "description": "as §1, §2"}, "Kv1.4": {"test_system": "Kv1.4", "assay": "Whole-cell patch clamp, Kv1.4 in transfected HEK cells", "conditions": "50 μM, room temperature, currents evoked at 0 mV, held at −80 mV", "description": "as §1, §2"}, "Nav1.5 [6]": {"test_system": "Nav1.5", "assay": "Whole-cell patch clamp, Nav1.5 in transfected HEK cells", "conditions": "room temperature, currents evoked at 0 mV, held at −80 mV", "description": "as §1, §2"}, "Kv4.2": {"test_system": "Kv4.2", "assay": "Whole-cell patch clamp, Kv4.2 in transfected HEK cells", "conditions": "50 μM, room temperature, currents evoked at 0 mV, held at −80 mV", "description": "as §1, §2"}, "[7]": {"test_system": "G-protein-coupled GABAB receptors", "conditions": "cited from earlier work"}, "[8]": {"test_system": "N-type (Cav2.2) calcium channels", "conditions": "cited from earlier work"}},
  "note": "Read-outs that look alike come from different tables or passages of the source. Bridge positions count the residues as written; N and C are the ends.",
  "data": [
    {"molecule": "Cc1cccc(C)c1NC(=O)C(C)N", "note": "(stereo not drawn) [Tocainide, tocainide]", "values": [
      {"measurement": "side effects", "setting": "[1]; can be fatal", "value": "anemia, agranulocytosis, pulmonary fibrosis, interstitial pneumonia, and pulmonary edema"}
    ]},
    {"molecule": "O=C(NCC1CCCCN1)c1cc(OCC(F)(F)F)ccc1OCC(F)(F)F", "note": "(stereo not drawn) [flecainide]", "values": [
      {"measurement": "efficacy in patients with NDM", "setting": "patients with NDM", "value": "effective in some patients with NDM"}
    ]},
    {"molecule": "Cc1cccc(C)c1OCC(C)N", "note": "(stereo not drawn) [mexiletine]", "values": [
      {"measurement": "side effects", "setting": "[1]; sensitivity of different patients varies greatly", "value": "indigestion"},
      {"measurement": "binding site on sodium channel", "setting": "[2]", "value": "binds to DIII S6 and DIV S6 of the sodium channel pore domain"},
      {"measurement": "effect on muscle stiffness", "setting": "patients with NDM; patients with NDM", "value": "improving muscle stiffness in patients with NDM"}
    ]},
    {"molecule": "ATX-II", "values": [
      {"measurement": "EC50", "setting": "Nav1.4 [3]", "value": 109, "unit": "nM"},
      {"measurement": "EC50", "setting": "Nav1.5 [4]", "value": 49, "unit": "nM"}
    ]},
    {"molecule": "GEFINGDCELPKVVGPCRAGFRRYYYNSSSKRCEKFIYGGCRGNANNFHTLEECEKVCGVRS (disulfide 8-58, 17-41, 33-54 (inferred)) [Avd3i, U-actitoxin-Avd3i]", "values": [
      {"measurement": "effect on Kv1.3", "setting": "Kv1.3", "value": "no effect"},
      {"measurement": "effect on Nav1.7", "setting": "Nav1.7", "value": "did not inhibit"},
      {"measurement": "IC50", "setting": "Nav1.4 [5]", "value": 25400, "unit": "nM"},
      {"measurement": "inhibition of Nav1.4 channel at 50.0 μM", "setting": "Nav1.4 [5]; 50.0 μM perfusion, transfected HEK cells, room temperature, holding −80 mV, stimulation 0 mV", "value": "suppressed"},
      {"measurement": "concentration dependence of Nav1.4 inhibition", "setting": "Nav1.4 [5]; transfected HEK cells, whole-cell patch clamp", "value": "concentration-dependent manner"},
      {"measurement": "effect on Kv1.4", "setting": "Kv1.4", "value": "no effect"},
      {"measurement": "effect on Nav1.5", "setting": "Nav1.5 [6]", "value": "did not inhibit"},
      {"measurement": "effect on Kv4.2", "setting": "Kv4.2", "value": "no effect"}
    ]},
    {"molecule": "Vc1.1", "values": [
      {"measurement": "binding to GABAB receptors", "setting": "[7]", "value": "binding to G-protein-coupled GABAB receptors"},
      {"measurement": "direct binding to Cav2.2", "setting": "[8]", "value": "do not directly bind"},
      {"measurement": "inhibition of Cav2.2 channel function", "setting": "[8]", "value": "indirectly inhibit channel function"}
    ]}
  ]
}
